From patent publication US20030236257A1, “Polycyclic aryl and heteroaryl substituted 4-pyridones useful for selective inhibition of the cogulation cascade” (priority 2003, published 2003)

Columns and labels:
Type in all cases: biochemical
human factor Xa = biological target: T1, human factor Xa (Homo sapiens, UniProt P00742); experiment: Xa Assay; conditions: read-out: IC50 or % Inhibition Factor Xa (30 µM): % inhibition
T1 construct: purchased Enzyme Research Laboratories, South Bend IN
Protocol: (§1) 0.3 nM human factor Xa and 0.15 mM N-a-Benzyloxycarbonyl-D-arginyl-L-glycyl-L-arginne-nitroaniline-dihydrochloride (S-2765) are added to a 96-well assay plate containing either inhibitor or buffer (50 mM Tris-HCl, pH 8.0, 100 mM NaCl, 0.1% BSA). The reaction, in a final volume of 100 ul is measured immediately at 405 nm to determine background absorbance. The plate is incubated at room temperature for 60 min, at which time the rate of hydrolysis of the substrate is measured by monitoring the reaction at 405 nm for the release of p-nitroaniline. Percent inhibition of Xa activity is calculated from OD405nm value from the experimental and control sample.
(§2) Recombinant soluble TF, consisting of amino acids 1-219 of the mature protein sequence was expressed in E. coli and purified using a Mono Q Sepharose FPLC. Recombinant human […] was purchased from American Diagnostica, Greenwich Cr and chromogenic substrate N-Methylsulfonyl-D-phe-gly-arg-pnitroaniline was prepared by American Peptide Company, Inc., Sunnyvale, Calif. Factor Xa was obtained from Enzyme Research Laboratories, South Bend IN, thrombin from Calbiochem, La Jolla, Calif., and trypsin and L-BAPNA from Sigma, St. Louis Mo. The chromogenic substrates S-2765 and S-2238 were purchased from Chromogenix, Sweden.

[1] = biological target: T2, trypsin, type IX from porcine pancreas (Sus scrofa, UniProt P00761); experiment: Trypsin Assay; conditions: chromogenic substrate L-BAPNA, 60 min at room temperature, OD 405 nm; read-out: IC50 or % Inhibition Trpysin II (30 µM): IC50
T2 construct: purchased Sigma, St. Louis Mo; host or cells: porcine pancreas
T2 sequence (P00761 9-231): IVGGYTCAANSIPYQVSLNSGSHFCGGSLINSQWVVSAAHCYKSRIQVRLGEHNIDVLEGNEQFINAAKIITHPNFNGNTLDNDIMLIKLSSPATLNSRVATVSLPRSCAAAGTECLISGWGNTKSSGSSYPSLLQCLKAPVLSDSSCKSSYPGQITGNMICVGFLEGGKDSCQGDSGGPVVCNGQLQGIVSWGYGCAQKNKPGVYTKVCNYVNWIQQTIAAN
Protocol: 5 ug/ml trypsin, type IX from porcine pancreas and 0.375 mM N-α-Benzoyl-L-arginine-p-nitroanilide (LBAPNA) are added to a 96-well assay plate containing either inhibitor or buffer (50 mM Tris-HCl, pH 8.0, 100 mM NaCl, 0.1% BSA). The reactions, in a final volume of 100 ul are measured immediately at 405 nm to determine background absorbance. The plate is incubated at room temperature for 60 min, at which time the rate of hydrolysis of the substrate is measured by monitoring the reaction at 405 nm for the release of p-nitroaniline. Percent inhibition of trypsin activity is calculated from OD405nm value from the experimental and control sample.
as §2

human thrombin = human thrombin (Homo sapiens, UniProt P00734); experiment: Thrombin Assay
Protocol: as §1, with “0.28” for “0.3”, “thrombin” for “factor Xa”, “0.06” for “0.15”, “H-D-Phenylalanyl-L-pipecolyl-L, arginine-nitroaniline, dihydrochloride” for “N-a-Benzyloxycarbonyl-D-arginyl-L-glycyl-L-arginne-nitroaniline-dihydrochloride (S-2765)”, “pnitroaniline.” for “p-nitroaniline.”, “thrombin” for “Xa”
as §2

[2] = biological target: T3, TF-VIIa (recombinant soluble tissue factor and recombinant human factor VIIa) (Homo sapiens, UniProt P08709); experiment: TF-VIIa Assay; conditions: chromogenic substrate, 60 min at room temperature, OD 405 nm; read-out: IC50 or % Inhibition TF-VIIa (30 µM): IC50
T3 construct: purchased American Diagnostica, Greenwich; host or cells: soluble TF made in house in E. coli
T3 sequence (P08709 213-466 limits assumed): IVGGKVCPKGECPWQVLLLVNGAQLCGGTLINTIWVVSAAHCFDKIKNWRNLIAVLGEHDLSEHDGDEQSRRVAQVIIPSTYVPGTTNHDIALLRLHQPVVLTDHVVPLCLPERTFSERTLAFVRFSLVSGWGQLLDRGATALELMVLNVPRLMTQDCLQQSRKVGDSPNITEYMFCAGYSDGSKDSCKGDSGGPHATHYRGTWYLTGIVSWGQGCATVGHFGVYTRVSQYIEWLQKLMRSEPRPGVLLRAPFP
T3 sequence (P08709 61-212 partner limits assumed): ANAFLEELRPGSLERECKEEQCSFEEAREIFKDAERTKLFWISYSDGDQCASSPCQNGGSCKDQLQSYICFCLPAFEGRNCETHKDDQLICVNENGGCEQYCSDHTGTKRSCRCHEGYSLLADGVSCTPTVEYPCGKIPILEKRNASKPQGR
T3 sequence (P13726 33-251 partner limits assumed): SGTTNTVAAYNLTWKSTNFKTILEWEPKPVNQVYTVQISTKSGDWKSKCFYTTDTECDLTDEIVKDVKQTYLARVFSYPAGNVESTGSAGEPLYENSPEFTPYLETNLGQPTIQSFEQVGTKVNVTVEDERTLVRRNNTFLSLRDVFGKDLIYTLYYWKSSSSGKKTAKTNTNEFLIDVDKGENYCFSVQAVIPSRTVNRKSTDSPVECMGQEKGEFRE
Protocol: as §1, with “In this assay 100” for “0.3”, “nM recombinant soluble tissue factor and 2 nM recombinant” for “nM”, “VIIa” for “Xa and 0.15 mM N-a-Benzyloxycarbonyl-D-arginyl-L-glycyl-L-arginne-nitroaniline-dihydrochloride (S-2765)”, “containing 0.4 mM of the substrate, N-Methylsulfonyl-D-phe-gly-arg-p-nitroaniline and” for “containing”, “(5 mM CaCl2, 50” for “(50”, “TF-VIIa” for “Xa”
as §2

T1 sequence (P00742 235-488 limits assumed): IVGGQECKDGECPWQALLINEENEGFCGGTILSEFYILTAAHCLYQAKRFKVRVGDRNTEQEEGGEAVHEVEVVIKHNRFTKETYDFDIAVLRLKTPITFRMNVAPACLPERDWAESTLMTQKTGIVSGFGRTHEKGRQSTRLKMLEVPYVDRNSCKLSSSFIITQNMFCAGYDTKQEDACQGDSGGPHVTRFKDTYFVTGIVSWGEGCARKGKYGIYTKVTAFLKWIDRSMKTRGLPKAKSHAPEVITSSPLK
T1 sequence (P00742 41-179 partner limits assumed): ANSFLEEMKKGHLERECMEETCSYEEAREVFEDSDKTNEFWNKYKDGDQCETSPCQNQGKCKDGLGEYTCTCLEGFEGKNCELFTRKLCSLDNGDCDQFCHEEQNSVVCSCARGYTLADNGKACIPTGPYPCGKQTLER

inhibition at 100 µM (human factor Xa) [%]	IC50 [1] [nM]	IC50 (human thrombin; chromogenic substrate, 60 min at room temperature, OD 405 nm, read-out: IC50 or % Inhibition Thrombin (30 µM): IC50) [µM]	IC50 [2] [nM]	inhibition at 100 µM (human thrombin; at 100 μM, read-out: IC50 or % Inhibition Thrombin (30 µM): % inhibition) [%]	Structure (SMILES)
32	33	100	280		CC(C)Nc1cn(C)c(-c2cccc(N)c2)c(CC(=O)NCc2ccc(C(=N)N)cc2)c1=O [Example 1]
34	151		560	45	CCCn1cc(NC(C)C)c(=O)c(CC(=O)NCc2ccc(C(=N)N)cc2)c1-c1cccc(N)c1 [Example 2]
